{"source": "patent US20100119592A1", "about": "“CYTARABINE FOR TREATMENT OF GLIOMA” (priority 2006, published 2010)", "origin": "cited, not measured here", "test_system": "proliferating mammalian cells in culture", "details": "wide variety of proliferating mammalian cells in culture", "data": [{"smiles": "Nc1ccn([C@@H]2O[C@H](CO)[C@@H](O)[C@@H]2O)c(=O)n1", "note": "[Cytarabine, 4-amino-1-beta-D-arabinofuranosyl-2(1H)-pyrimidinone]", "values": [{"measurement": "cytotoxicity", "result": "cytotoxic"}]}]}
